Test results as given in PubChem BioAssay (NCI).
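Five compound concentrations were applied to cells in 96-well plates for 48 hours; endpoints were derived by simple linear interpolation of the resulting dose-response curve. TGI marks complete inhibition of growth.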 Where a SMILES comes first, the peptide text is derived from it. The star is where a group is joined. Boc = CC(C)(C)OC(=O)*

What was measured:
Test in all cases: inhibition of tumour cell growth, NCI panel, 48 h
786-0 renal = test system: 786-0 renal
A498 renal = test system: A498 renal
A549 NSCLC = test system: A549 NSCLC
ACHN renal = test system: ACHN renal
BT-549 breast = test system: BT-549 breast
CAKI-1 renal = test system: CAKI-1 renal
CCRF-CEM leukemia = test system: CCRF-CEM leukemia
COLO 205 colon = test system: COLO 205 colon
DU-145 prostate = test system: DU-145 prostate
EKVX NSCLC = test system: EKVX NSCLC
HCC-2998 colon = test system: HCC-2998 colon
HCT-116 colon = test system: HCT-116 colon
HCT-15 colon = test system: HCT-15 colon
HL-60(TB) leukemia = test system: HL-60(TB) leukemia
HOP-92 NSCLC = test system: HOP-92 NSCLC
HS 578T breast = test system: HS 578T breast
IGROV1 ovarian = test system: IGROV1 ovarian
K-562 leukemia = test system: K-562 leukemia
KM12 colon = test system: KM12 colon
LOX IMVI melanoma = test system: LOX IMVI melanoma
M14 melanoma = test system: M14 melanoma
MALME-3M melanoma = test system: MALME-3M melanoma
MCF7 breast = test system: MCF7 breast
MDA-MB-231 breast = test system: MDA-MB-231 breast
MDA-MB-435 = test system: MDA-MB-435
MDA-N = test system: MDA-N
MOLT-4 leukemia = test system: MOLT-4 leukemia
NCI-H226 lung = test system: NCI-H226 lung
NCI-H460 lung = test system: NCI-H460 lung
NCI-H522 lung = test system: NCI-H522 lung
NCI/ADR-RES ovarian = test system: NCI/ADR-RES ovarian
OVCAR-3 ovarian = test system: OVCAR-3 ovarian
OVCAR-4 ovarian = test system: OVCAR-4 ovarian
OVCAR-5 ovarian = test system: OVCAR-5 ovarian
OVCAR-8 ovarian = test system: OVCAR-8 ovarian
PC-3 prostate = test system: PC-3 prostate
RPMI-8226 leukemia = test system: RPMI-8226 leukemia
RXF 393 renal = test system: RXF 393 renal
SF-268 CNS = test system: SF-268 CNS
SF-295 CNS = test system: SF-295 CNS
SF-539 CNS = test system: SF-539 CNS
SK-MEL-2 melanoma = test system: SK-MEL-2 melanoma
SK-MEL-28 melanoma = test system: SK-MEL-28 melanoma
SK-MEL-5 melanoma = test system: SK-MEL-5 melanoma
SN12C renal = test system: SN12C renal
SNB-19 CNS = test system: SNB-19 CNS
SNB-75 CNS = test system: SNB-75 CNS
SR leukemia = test system: SR leukemia
SW-620 colon = test system: SW-620 colon
T-47D breast = test system: T-47D breast
TK-10 renal = test system: TK-10 renal
U251 CNS = test system: U251 CNS
UACC-257 melanoma = test system: UACC-257 melanoma
UACC-62 melanoma = test system: UACC-62 melanoma
UO-31 renal = test system: UO-31 renal
HOP-62 NSCLC = test system: HOP-62 NSCLC
HT29 colon = test system: HT29 colon
NCI-H23 lung = test system: NCI-H23 lung
SK-OV-3 ovarian = test system: SK-OV-3 ovarian

CNN1C(=O)c2c(N)c(C#N)c(-c3ccccc3)c(-c3ccccc3)c2C1=O
TGI (786-0 renal): > 100 µM | TGI (A498 renal): > 100 µM | TGI (A549 NSCLC): > 100 µM | TGI (ACHN renal): > 100 µM | TGI (BT-549 breast): > 100 µM | TGI (CAKI-1 renal): > 100 µM | TGI (CCRF-CEM leukemia): > 100 µM | TGI (COLO 205 colon): > 100 µM | TGI (DU-145 prostate): > 100 µM | TGI (EKVX NSCLC): > 100 µM | TGI (HCC-2998 colon): > 100 µM | TGI (HCT-116 colon): > 100 µM | TGI (HCT-15 colon): > 100 µM | TGI (HL-60(TB) leukemia): > 100 µM | TGI (HOP-92 NSCLC): > 100 µM | TGI (HS 578T breast): > 100 µM | TGI (IGROV1 ovarian): > 100 µM | TGI (K-562 leukemia): > 100 µM | TGI (KM12 colon): > 100 µM | TGI (LOX IMVI melanoma): > 100 µM | TGI (M14 melanoma): > 100 µM | TGI (MALME-3M melanoma): > 100 µM | TGI (MCF7 breast): > 100 µM | TGI (MDA-MB-231 breast): > 100 µM | TGI (MDA-MB-435): > 100 µM | TGI (MDA-N): > 100 µM | TGI (MOLT-4 leukemia): > 100 µM | TGI (NCI-H226 lung): > 100 µM | TGI (NCI-H460 lung): > 100 µM | TGI (NCI-H522 lung): > 100 µM | TGI (NCI/ADR-RES ovarian): > 100 µM | TGI (OVCAR-3 ovarian): > 100 µM | TGI (OVCAR-4 ovarian): > 100 µM | TGI (OVCAR-5 ovarian): > 100 µM | TGI (OVCAR-8 ovarian): > 100 µM | TGI (PC-3 prostate): > 100 µM | TGI (RPMI-8226 leukemia): > 100 µM | TGI (RXF 393 renal): > 100 µM | TGI (SF-268 CNS): > 100 µM | TGI (SF-295 CNS): > 100 µM | TGI (SF-539 CNS): > 100 µM | TGI (SK-MEL-2 melanoma): > 100 µM | TGI (SK-MEL-28 melanoma): > 100 µM | TGI (SK-MEL-5 melanoma): > 100 µM | TGI (SN12C renal): > 100 µM | TGI (SNB-19 CNS): > 100 µM | TGI (SNB-75 CNS): > 100 µM | TGI (SR leukemia): > 100 µM | TGI (SW-620 colon): > 100 µM | TGI (T-47D breast): > 100 µM | TGI (TK-10 renal): > 100 µM | TGI (U251 CNS): > 100 µM | TGI (UACC-257 melanoma): > 100 µM | TGI (UACC-62 melanoma): > 100 µM | TGI (UO-31 renal): > 100 µM

CC(NC(=O)OC(C)(C)C)C(=O)NC(Cc1ccccc1)C(=O)NCC(=O)O (stereo not drawn) (Boc-Ala-Phe-Gly-OH; configuration not given here)
TGI (786-0 renal): > 100 µM | TGI (A498 renal): > 100 µM | TGI (A549 NSCLC): > 100 µM | TGI (ACHN renal): > 100 µM | TGI (BT-549 breast): > 100 µM | TGI (CAKI-1 renal): > 100 µM | TGI (CCRF-CEM leukemia): > 100 µM | TGI (COLO 205 colon): > 100 µM | TGI (DU-145 prostate): > 100 µM | TGI (EKVX NSCLC): > 100 µM | TGI (HCC-2998 colon): > 100 µM | TGI (HCT-116 colon): > 100 µM | TGI (HCT-15 colon): > 100 µM | TGI (HL-60(TB) leukemia): > 100 µM | TGI (HOP-62 NSCLC): > 100 µM | TGI (HOP-92 NSCLC): > 100 µM | TGI (HS 578T breast): > 100 µM | TGI (HT29 colon): > 100 µM | TGI (IGROV1 ovarian): > 100 µM | TGI (K-562 leukemia): > 100 µM | TGI (KM12 colon): > 100 µM | TGI (LOX IMVI melanoma): > 100 µM | TGI (M14 melanoma): > 100 µM | TGI (MALME-3M melanoma): > 100 µM | TGI (MCF7 breast): > 100 µM | TGI (MDA-MB-231 breast): > 100 µM | TGI (MDA-MB-435): > 100 µM | TGI (MDA-N): > 100 µM | TGI (MOLT-4 leukemia): > 100 µM | TGI (NCI-H226 lung): > 100 µM | TGI (NCI-H23 lung): > 100 µM | TGI (NCI-H460 lung): > 100 µM | TGI (NCI-H522 lung): > 100 µM | TGI (NCI/ADR-RES ovarian): > 100 µM | TGI (OVCAR-3 ovarian): > 100 µM | TGI (OVCAR-5 ovarian): > 100 µM | TGI (OVCAR-8 ovarian): > 100 µM | TGI (PC-3 prostate): > 100 µM | TGI (RPMI-8226 leukemia): > 100 µM | TGI (RXF 393 renal): > 100 µM | TGI (SF-268 CNS): > 100 µM | TGI (SF-295 CNS): > 100 µM | TGI (SF-539 CNS): > 100 µM | TGI (SK-MEL-2 melanoma): > 100 µM | TGI (SK-MEL-28 melanoma): > 100 µM | TGI (SK-MEL-5 melanoma): > 100 µM | TGI (SK-OV-3 ovarian): > 100 µM | TGI (SN12C renal): > 100 µM | TGI (SNB-19 CNS): > 100 µM | TGI (SNB-75 CNS): > 100 µM | TGI (SR leukemia): > 100 µM | TGI (SW-620 colon): > 100 µM | TGI (T-47D breast): > 100 µM | TGI (TK-10 renal): > 100 µM | TGI (U251 CNS): > 100 µM | TGI (UACC-257 melanoma): > 100 µM | TGI (UACC-62 melanoma): > 100 µM | TGI (UO-31 renal): > 100 µM

Cc1nnc(N)nc1/C=C\c1ccc(N(C)C)cc1
TGI (786-0 renal): > 100 µM | TGI (A498 renal): > 100 µM | TGI (A549 NSCLC): > 100 µM | TGI (ACHN renal): > 100 µM | TGI (BT-549 breast): > 100 µM | TGI (CAKI-1 renal): > 63.3 µM | TGI (CCRF-CEM leukemia): > 100 µM | TGI (COLO 205 colon): > 100 µM | TGI (DU-145 prostate): > 100 µM | TGI (EKVX NSCLC): > 100 µM | TGI (HCC-2998 colon): 23.8 µM | TGI (HCT-116 colon): > 100 µM | TGI (HCT-15 colon): > 59.2 µM | TGI (HL-60(TB) leukemia): 8.91 µM | TGI (HOP-62 NSCLC): > 100 µM | TGI (HOP-92 NSCLC): > 100 µM | TGI (HS 578T breast): > 100 µM | TGI (HT29 colon): > 100 µM | TGI (IGROV1 ovarian): > 100 µM | TGI (K-562 leukemia): > 100 µM | TGI (KM12 colon): > 100 µM | TGI (LOX IMVI melanoma): 20.1 µM | TGI (M14 melanoma): > 100 µM | TGI (MALME-3M melanoma): > 100 µM | TGI (MCF7 breast): > 100 µM | TGI (MDA-MB-231 breast): > 100 µM | TGI (MDA-MB-435): > 100 µM | TGI (MDA-N): > 100 µM | TGI (MOLT-4 leukemia): > 100 µM | TGI (NCI-H226 lung): > 100 µM | TGI (NCI-H23 lung): > 100 µM | TGI (NCI-H460 lung): > 100 µM | TGI (NCI-H522 lung): 17.1 µM | TGI (NCI/ADR-RES ovarian): > 100 µM | TGI (OVCAR-4 ovarian): > 100 µM | TGI (OVCAR-5 ovarian): > 100 µM | TGI (OVCAR-8 ovarian): > 100 µM | TGI (PC-3 prostate): > 100 µM | TGI (RPMI-8226 leukemia): > 100 µM | TGI (RXF 393 renal): > 100 µM | TGI (SF-268 CNS): > 100 µM | TGI (SF-295 CNS): > 100 µM | TGI (SK-MEL-2 melanoma): > 100 µM | TGI (SK-MEL-28 melanoma): > 100 µM | TGI (SK-MEL-5 melanoma): > 100 µM | TGI (SK-OV-3 ovarian): > 100 µM | TGI (SN12C renal): > 100 µM | TGI (SNB-19 CNS): > 100 µM | TGI (SNB-75 CNS): > 100 µM | TGI (SR leukemia): > 100 µM | TGI (SW-620 colon): > 100 µM | TGI (T-47D breast): > 100 µM | TGI (TK-10 renal): > 100 µM | TGI (U251 CNS): > 100 µM | TGI (UACC-257 melanoma): > 100 µM | TGI (UACC-62 melanoma): > 66.9 µM | TGI (UO-31 renal): > 100 µM
